Source: patent US4692447A, “Tricyclic dihydropyridazinones and pharmaceutical compositions containing them” (Boehringer Biochemia Robin, S.p.A., priority 1984, dated 1987)

Experiments:
Normotensive rats = assay: hypotensive effect in conscious normotensive rats (Table 2); format: in vivo; details: os
Text: (§1) As it is shown in Table 2, the decrease of the systolic median blood pressure was long lasting and the length of the effect was dose-related.

SHR Rats = assay: hypotensive effect in conscious spontaneously hypertensive rats (Table 2); format: in vivo; set-up: ΔBP sist: unit not given here
Text: as §1

[1] = system: sudden death induced by arachidonate in mice; assay: protection against sudden death induced by arachidonate in mice; format: in vivo; details: oral; for increase of protection as compared with ASA: screening dosage 20 mg/kg vs ASA 200 mg/kg; for protection against sudden death compared with ASA: 20 mg/kg vs ASA 200 mg/kg
Text: The same compounds from BBR-1507 to BBR-1513, given orally, protected against sudden death induced by arachidonate in mice.

[2] = acute toxicity in mice (LD50); details: mouse, in vivo
Experimental: First of all, the compounds of the present invention are characterized by a low acute toxicity and a very favourable therapeutic index.
The compounds were administered by oral and intraperitoneal route.

[3] = system: conscious normal and in spontaneously hypertensive rats; assay: hypotensive effect in conscious normal and spontaneously hypertensive rats; format: in vivo
Experimental: This is particularly the case of compounds like as BBR-1511, 1513 and 1509 which show only a little (5-8 mmHg) even if prolonged hypotensive effect when tested in conscious normal and in spontaneously hypertensive rats at doses ranging from 100 to 200 mg/kg by intraperitoneal route.

[4] = system: paw edema induced by carrageenin; assay: paw edema induced by carrageenin; format: in vivo; details: 20, 60 and 200 mg/kg; for reducing the paw edema induced by carrageenin: oral route; for activity in paw edema relative to ASA: oral, more active than ASA
[5] = system: sudden death induced by arachidonate in mice; assay: protection against sudden death induced by arachidonate in mice; details: vs ASA
[6] = system: platelet-rich plasma (PRP) from guinea pigs; assay: in vitro platelet aggregation in platelet-rich plasma, Born aggregometer; format: cell-based; details: vs ASA
[7] = intraperitoneal and oral, conscious normotensive and SHR rats, qualitative
[8] = conscious normal and SHR rats, 100 to 200 mg/kg, intraperitoneal, prolonged

Structure (SMILES) | duration (Normotensive rats; 12.5 mg/kg) | ΔBP sist (Normotensive rats; 12.5 mg/kg) | duration (SHR Rats; os, 3.125 mg/kg) | ΔBP sist (SHR Rats; os, 3.125 mg/kg) | duration (SHR Rats; os, 6.25 mg/kg) | ΔBP sist (SHR Rats; os, 6.25 mg/kg) | duration (SHR Rats; os, 12.5 mg/kg) | ΔBP sist (SHR Rats; os, 12.5 mg/kg) | increase of protection as compared with ASA [1] | LD50 ([2]; ip) | LD50 ([2]; po, os) | hypotensive effect [3, 7] | reducing the paw edema induced by carrageenin [4] | activity in paw edema relative to ASA [4] | protection against sudden death compared with ASA [1] | hypotensive effect [3, 8] | inhibiting platelet aggregation in vivo compared with ASA [5] | inhibiting platelet aggregation in vitro compared with ASA [6] | also measured
CC(=O)Nc1ccc2c(c1)CC1CC(=O)NN=C21 (racemic) [BBR-1507, dl-7-acetylamino-4,4a-dihydro-5H-indeno-[1,2-c]pyridazin-3-one] | 3 h | -26 | 3 h | -25 | > 4 h | -50 | 5.6 h | -58 | 20-30% | 310 mg/kg | > 1000 mg/kg | more evident and prolonged hypotensive effect | effective in reducing the paw edema | 1.5-2 times |  |  |  |  | duration (Normotensive rats; 6.25 mg/kg): 3 h; ΔBP sist (Normotensive rats; 6.25 mg/kg): -8; duration (SHR Rats; i.p., 50 mg/kg): > 4 h; ΔBP sist (SHR Rats; i.p., 50 mg/kg): -55; duration (SHR Rats; os, 1.56 mg/kg): 1.5 h; ΔBP sist (SHR Rats; os, 1.56 mg/kg): -18
Nc1ccc2c(c1)CCCC1CC(=O)NN=C21 (racemic) [BBR-1513, dl-9-amino-2,4,4a,5,6,7-hexahydro-3H-benzo-[6,7]-cyclohepten[1,2-c]-pyridazin-3-one] |  |  |  |  |  |  |  |  |  | 483 mg/kg | 700 mg/kg |  | scarcely effective |  | equiactive as acetylsalicylic acid (ASA) | 5-8 mmHg | at least equiactive as ASA | at least equiactive as ASA | 
CCCCN1N=C2c3ccc(N)cc3CCC2CC1=O (racemic) [BBR-1511] |  |  |  |  |  |  |  |  |  | 1000 mg/kg | > 1000 mg/kg |  |  |  | equiactive as acetylsalicylic acid (ASA) | 5-8 mmHg |  |  | 
CC(=O)Nc1ccc2c(c1)CCC1CC(=O)NN=C21 (racemic) [BBR-1508, dl-8-acetylamino-4,4a,5,6-tetrahydro-2H-benzo(h)-cinnolin-3-one] | 4 h | -20 | 2 h | -30 | 4 h | -30 | 4.6 h | -55 | 40% | 360 mg/kg | > 1000 mg/kg | more evident and prolonged hypotensive effect | effective in reducing the paw edema | 1.5-2 times |  |  |  |  | ΔBP sist (Normotensive rats; 3.125 mg/kg): inactive; duration (Normotensive rats; 6.25 mg/kg): 1.5 h; ΔBP sist (Normotensive rats; 6.25 mg/kg): -8; duration (Normotensive rats; 25 mg/kg): 4 h; ΔBP sist (Normotensive rats; 25 mg/kg): -48; duration (SHR Rats; i.p., 12.5 mg/kg): 3 h; ΔBP sist (SHR Rats; i.p., 12.5 mg/kg): -50; duration (SHR Rats; i.p., 25 mg/kg): 3 h; ΔBP sist (SHR Rats; i.p., 25 mg/kg): -90; duration (SHR Rats; os, 25 mg/kg): 4.6 h; ΔBP sist (SHR Rats; os, 25 mg/kg): -65
O=C1CC2CCc3cc(NC(=O)CCl)ccc3C2=NN1 (racemic) [BBR-1514, dl-8-chloroacetylamino-4,4a,5,6-tetrahydro-2H-benzo(h)-cinnolin-3-one] |  |  |  |  |  |  |  |  |  | > 1000 mg/kg | > 1000 mg/kg |  | inactive |  |  |  | at least equiactive as ASA | at least equiactive as ASA | 
Nc1ccc2c(c1)CC1CC(=O)NN=C21 (racemic) [BBR-1512, dl-7-amino-4,4a-dihydro-5H-indeno[1,2-c]-pyridazin-3-one] |  |  |  |  |  |  |  |  | 20-30% | 200 mg/kg | 400 mg/kg |  |  |  |  |  |  |  | 
Nc1ccc2c(c1)CCC1CC(=O)NN=C21 (racemic) [BBR-1510, dl-8-amino-4,4a,5,6-tetrahydro-2H-benzo(h)-cinnolin-3-one] | > 6 h | -28 | 2 h | -46 | 3.4 h | -40 | > 3 h | -60 | 20-30% | 610 mg/kg | > 1000 mg/kg | more evident and prolonged hypotensive effect | effective in reducing the paw edema | 1.5-2 times |  |  |  |  | duration (SHR Rats; i.p., 6.25 mg/kg): 1 h; ΔBP sist (SHR Rats; i.p., 6.25 mg/kg): -55; duration (SHR Rats; i.p., 12.5 mg/kg): > 4 h; ΔBP sist (SHR Rats; i.p., 12.5 mg/kg): -80; duration (SHR Rats; os, 1.56 mg/kg): 1 h; ΔBP sist (SHR Rats; os, 1.56 mg/kg): -48
CC(=O)Nc1ccc2c(c1)CCCC1CC(=O)NN=C21 (racemic) [BBR-1509, dl-8-acetylamino-2,4,4a,5,6,7-hexahydro-3H-benzo[6,7]-cyclohepten[1,2-c]-pyridazin-3-one] |  |  |  |  |  |  |  |  |  | > 1000 mg/kg | > 1000 mg/kg |  | inactive |  | equiactive as acetylsalicylic acid (ASA) | 5-8 mmHg | at least equiactive as ASA | at least equiactive as ASA | 
